Data set [1] is described as follows: Caco-2 Permeability Assay (bidirectional). Type of data set: in vitro ADME. The note with it: human. The text has this:
(§1) Caco-2 cells are commonly used in a confluent monolayer on a cell culture insert filter. When cultured in this format and under specific conditions, the cells become differentiated and polarized such that their phenotype, morphologically and functionally resembles the enterocytes lining the small intestine. The cell monolayer provides a physical and biochemical barrier to the passage of small molecules, and is widely used across the pharmaceutical industry as an in vitro model of the human small intestinal mucosa to predict the absorption of orally administered drugs (Hidalgo et al., Gastroenterology, 1989; Artursson, J. Pharm. Sci., 1990). The correlation between the in vitro apparent permeability (P ? app) across Caco-2 monolayers and the in vivo absorption is well established (Artursson et al., Biochem. Biophys. Res. Comm., 1991).
(§2) The present assay was used to determine the bidirectional permeability of the compounds of the invention through Caco-2 cell monolayers. Caco-2 cells were grown in confluent monolayers where the media of both the apical (A) and basolateral (B) sides were at pH 7.4. Compounds were dosed at 1 μM in the presence of 200 μM Lucifer Yellow, on the apical side (A→B) or the basolateral side (B→A) for assessment, in duplicate.
(§3) The absorption potential of compounds were classified as either Low (P-app <1×10^−6 cm/s) or High (P-app >1×10^−6 cm/s).
(In general: Passage across Caco-2 layers is used to estimate intestinal permeability.)

The subject of data set [2] is Caco-2 cell monolayers. As to the kind of experiment: Caco-2 Permeability Assay (bidirectional). It is filed as in vitro ADME.
Text: as §1, §2, §3

Data set [3] in a line: Solubility (18 hr vortex mixing at room temperature, filtration, HPLC). Type of data set: physicochemical. The note with it: thermodynamic from solid. As for the experimental part: Ca. 1 mg portions of test article were combined with 120 μL solvent in wells of a 96×2 mL polypropylene plate. […] The contents of all wells were then filtered through a 0.45 μm GHP filter plate to yield clear filtrates. 5 μL of each filtrate was diluted into 100 μL DMF and vortex mixed to yield HPLC samples. Duplicate quantitation standards for each test article were prepared by diluting weighed portions of solid test article in measured volumes of DMF. 2 μL of each HPLC sample and quantitation standard were analyzed by HPLC using the method outlined in Table 5. Dissolved test article concentrations were calculated by peak area ratio against the appropriate quantitation standards.

The subject of data set [4] is P493-6 (myc "on") cells. As to the kind of experiment: Cell Proliferation Assay (72 hrs, Cell Titer Glo or Viacount FACS). As to conditions: P493-6 cells, 72 h. It is filed as cell-based. Here is the method: P493-6 (myc “on”) cells were maintained in growth media (RPMI-1640, 10% FBS, 2 mM glutamine, 100 units/ml Penicillin and 100 μg/ml streptomycin) at 37° C. with 5% CO2. For compound assay, P493-6 cells were plated in 96-well V-bottom plates on the day of compound addition in 50 μl of growth media at a cell density of 200,000 cells/ml (10,000 cells/well). Compounds were serially diluted in 100% DMSO at 200-times the final concentration. Compounds were diluted 100-fold into growth media and then 50 μl of this mixture was added to cell plates making the final concentration of DMSO 0.5%. Cells were incubated with compound for 72 hrs at 37° C. with 5% CO2 and analyzed for antiproliferative effects either by Cell Titer Glo (Promega) or FACS analysis using the Viacount (Millipore) kit on the Guava instrument.

In brackets after ≈: the same amount, converted by molar mass. Like-named read-outs stand apart in the source and are kept apart here.

Here are results for three compounds from patent US8604016B2, “Heterocyclic inhibitors of glutaminase” (Calithera Biosciences Inc., priority 2011, dated 2013).

What is called efflux ratio is the permeability from basolateral to apical divided by that in the opposite direction, in the common usage. The term Papp A→B denotes how fast a substance crosses the layer from the apical side. In general, Papp B→A refers to the apparent permeability from the basolateral to the apical side of a cell layer. In general, solubility refers to how much of the substance goes into solution per volume. For `O=C(Cc1cccc(OC(F)(F)F)c1)Nc1ccc(CCCCc2nnc(NC(=O)C(O)c3cccc(Cl)c3)s2)nn1` (centres unmarked) [Compound 447], the recovery at 120 min, 1 μM came to 71% in data set [1] (Caco-2, pH 7.4, Direction A→B, 1 μM, 120 minutes, pH 7.4) and 56% in data set [1] (Caco-2, pH 7.4, Direction B→A, 1 μM, 120 minutes, pH 7.4). The efflux ratio at 120 min, 1 µM in data set [1] (Caco-2, (Papp B→A)/(Papp A→B)) was determined as 3.5. This compound also registered an apical-to-basolateral permeability (Papp A→B) at 120 min, 1 μM in data set [1] (Caco-2, Direction A→B, 1 μM, 120 minutes, pH 7.4, unit not given (thresholds in 10^−6 cm/s)) of 7.76 ×10⁻⁶ cm/s. Moreover, the basolateral-to-apical permeability (Papp B→A) at 120 min, 1 μM in data set [1] (Caco-2, Direction B→A, 1 μM, 120 minutes, pH 7.4, unit not given (thresholds in 10^−6 cm/s)) turned out to be 27.2 ×10⁻⁶ cm/s. The permeability class (Low/High absorption potential) at 120 min, 1 µM in data set [1] (Caco-2, absorption potential, read-out: Permeability Classification) is over 1 ×10⁻⁶ cm/s. The “Significant Efflux” value in data set [2] is “Yes (efflux ratios being significant when greater than or equal to 3 when the Papp (B→A) was greater than or equal to 1×10^−6 cm/s)”. Besides, the solubility at 18 h in data set [3] (50 mM citrate buffer pH 2.3, 20 °C, aqueous buffer, 50 mM Cit pH 2.3, room temperature) was under 4 µg/mL; in data set [3] (50 mM citrate buffer pH 3.3, 20 °C, aqueous buffer, 50 mM Cit pH 3.3, room temperature), under 4 µg/mL; in data set [3] (50 mM citrate buffer pH 4.4, 20 °C, aqueous buffer, 50 mM Cit pH 4.4, room temperature), under 4 µg/mL; in data set [3] (50 mM citrate buffer pH 5.4, 20 °C, aqueous buffer, 50 mM Cit pH 5.4, room temperature) it was under 4 µg/mL; in data set [3] (20 °C, aqueous buffer, PBS, room temperature), under 4 µg/mL; in data set [3] (20 °C, aqueous with cosolvent or surfactant or cyclodextrin, 10% CrEL/50 mM cit, room temperature), 732 µg/mL (≈ 1180 µM). Further, the solubility at 18 h in data set [3] (20 °C, aqueous with cosolvent or surfactant or cyclodextrin, 10% PS80/50 mM cit, room temperature) came to 851 µg/mL (≈ 1370 µM); in data set [3] (20 °C, aqueous with cosolvent or surfactant or cyclodextrin, 20% HPBCD/50 mM cit, room temperature), 2180 µg/mL (≈ 3510 µM); in data set [3] (20 °C, aqueous with cosolvent or surfactant or cyclodextrin, 20% SBECD/50 mM cit, room temperature), 2720 µg/mL (≈ 4380 µM); in data set [3] (20 °C, oil or lipid, Capryol 90, room temperature) it was 11100 µg/mL (≈ 17900 µM); in data set [3] (20 °C, oil or lipid, Capryol PGMC, room temperature), 7920 µg/mL (≈ 12700 µM); in data set [3] (20 °C, oil or lipid, Labrasol, room temperature), 77200 µg/mL (≈ 124000 µM). Moreover, the solubility at 18 h in data set [3] (20 °C, oil or lipid, canola oil, room temperature) was 71 µg/mL (≈ 114 µM); in data set [3] (20 °C, organic solvent or mixture, EtOH, room temperature), 3920 µg/mL (≈ 6310 µM); in data set [3] (20 °C, organic solvent or mixture, PEG400, room temperature), 57300 µg/mL (≈ 92300 µM); in data set [3] (20 °C, organic solvent or mixture, PG, room temperature), 8260 µg/mL (≈ 13300 µM); in data set [3] (20 °C, pH 1, simulated gastric fluid, 0.1M HCl, room temperature) it was under 4 µg/mL; in data set [3] (20 °C, pH 13, aqueous buffer, 0.1M NaOH, room temperature), 192 µg/mL (≈ 309 µM). The solubility at 18 h in data set [3] (20 °C, saline or isotonic, 0.9% NaCl, room temperature) is 5 µg/mL (≈ 8.05 µM); in data set [3] (water, room temperature (ca. 20 C)) it was under 4 µg/mL.

For the compound `O=C(Nc1nnc(CCCCc2nnc(NC(=O)C3COc4ccccc43)s2)s1)C1COc2ccccc21` (centres unmarked) [Compound 135], in data set [4] (read-out: Cell prolif P493 72h IC50), the IC50 worked out at 490 nM.

For the compound `Nc1nnc(CCCCc2ccc(NC(=O)Cc3cccc(OC(F)(F)F)c3)nn2)s1` [Compound 657, N-(6-(4-(5-amino-1,3,4-thiadiazol-2-yl)butyl)pyridazin-3-yl)-2-(3-(trifluoromethoxy)phenyl)acetamide], the IC50 in data set [4] (P493-6, 72 h, read-out: Cell prolif P493 72h) was 1500 nM.
